In ChEMBL document CHEMBL1201862, “PubChem BioAssay data set” (2004):
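Cells were grown in 96-well plates and exposed to each compound for 48 hours at five concentrations; endpoints were interpolated linearly between bracketing concentrations, or set to the highest concentration if not reached. GI50: concentration for 50% inhibition of growth.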 The source made the active and inactive calls. Cut-off read from the data, not from the text of the source: active = GI50 up to about 1.1 µM and inactive = higher.

Assays:
Assay in all cases: NCI-60 cell line screen, 48 h
[1] = system: Hs-578T
[2] = system: SK-MEL-5
[3] = system: BT-549
[4] = system: MDA-MB-231
[5] = system: SW-620
[6] = system: MDA-MB-435
[7] = system: PC-3
[8] = system: ACHN
[9] = system: U-251
[10] = system: NCI-H460
[11] = system: SK-MEL-2
[12] = system: HL-60
[13] = system: DU-145
[14] = system: SF-268
[15] = system: T47D
[16] = system: OVCAR-5
[17] = system: SK-OV-3
[18] = system: RPMI-8226
[19] = system: MCF7
[20] = system: SNB-75

Measured: GI50

CN(C)CCNc1ccccn1
inactive: [1] > 100 µM | [2] > 100 µM | [3] > 100 µM | [4] > 100 µM | [5] > 100 µM | [6] > 100 µM | [7] > 100 µM | [8] > 100 µM | [9] > 100 µM | [10] > 100 µM | [11] > 100 µM | [12] > 100 µM | [13] > 100 µM | [14] > 100 µM | [15] > 100 µM | [16] > 100 µM

O=C(O)C#Cc1ccc([N+](=O)[O-])cc1
inactive: [1] > 100 µM | [2] > 100 µM | [3] > 100 µM | [17] > 100 µM | [18] > 100 µM | [4] > 100 µM | [5] > 100 µM | [6] > 100 µM | [7] > 100 µM | [8] > 100 µM | [9] > 100 µM | [10] > 100 µM | [11] > 100 µM | [12] > 100 µM | [13] > 100 µM | [14] > 100 µM | [15] > 100 µM | [19] > 100 µM | [16] > 100 µM

CN(C)c1ccc(/C=C2\C[C@H]3[C@@H]4CC=C5C[C@@H](O)CC[C@]5(C)[C@H]4CC[C@]3(C)[C@H]2O)cc1
inactive: [20] 29.2 µM | [1] 23.4 µM | [2] 17.6 µM | [3] 21 µM | [17] 31.2 µM | [18] 29.9 µM | [4] 16.2 µM | [5] 24.8 µM | [7] 13.1 µM | [8] 16 µM | [9] 8.2 µM | [10] 14.4 µM | [11] 20.9 µM | [12] 31 µM | [13] 34.1 µM | [14] 17 µM | [15] 23.3 µM | [19] 17.4 µM | [16] 17.3 µM

CCOC(=O)NC(Nc1ccc(C)cc1)(C(F)(F)F)C(F)(F)F
inactive: [20] > 100 µM | [1] > 100 µM | [2] > 100 µM | [3] > 100 µM | [17] > 100 µM | [18] > 100 µM | [4] > 100 µM | [5] > 100 µM | [6] > 100 µM | [7] > 100 µM | [8] > 100 µM | [9] > 100 µM | [10] > 100 µM | [12] > 100 µM | [13] > 100 µM | [14] > 100 µM | [15] > 100 µM | [19] > 100 µM | [16] > 100 µM

Cc1c(C#N)c(N)[nH]c(=S)c1C#N
inactive: [20] > 100 µM | [1] > 100 µM | [2] > 100 µM | [3] > 100 µM | [18] > 100 µM | [4] > 100 µM | [5] > 100 µM | [7] > 100 µM | [8] > 100 µM | [9] > 100 µM | [10] > 100 µM | [11] > 100 µM | [12] > 100 µM | [13] > 100 µM | [14] > 100 µM | [15] > 100 µM | [19] > 100 µM | [16] > 100 µM

O=S(=O)(O)c1ccc(/N=N/c2ccc(/N=N/c3c(O)ccc4ccc(S(=O)(=O)O)cc34)cc2)cc1
inactive: [1] > 100 µM | [2] > 100 µM | [3] > 100 µM | [17] > 100 µM | [18] > 100 µM | [4] > 100 µM | [5] > 100 µM | [6] > 100 µM | [7] > 100 µM | [8] > 100 µM | [9] > 100 µM | [10] > 100 µM | [11] > 100 µM | [12] > 100 µM | [13] > 100 µM | [14] > 100 µM | [15] > 100 µM | [19] > 100 µM | [16] > 100 µM

O=C(O)c1ccc(/C=N/N=C2c3ccccc3-c3ccccc32)cc1
inactive: [1] 13.7 µM | [2] 26.5 µM | [3] > 100 µM | [17] 74.3 µM | [18] 63.7 µM | [4] > 100 µM | [5] 36.1 µM | [6] 73.5 µM | [7] 35 µM | [8] 48.3 µM | [9] 37.4 µM | [10] 41.2 µM | [11] 27.4 µM | [12] 32.9 µM | [13] > 100 µM | [14] 23.6 µM | [15] 64 µM | [19] 33.2 µM | [16] 50.2 µM

CC(C)=NNC1=NC(C)(C)P(=O)(NNc2ncccn2)S1 (stereo unspecified)
inactive: [1] > 100 µM | [2] > 100 µM | [3] > 100 µM | [17] > 100 µM | [4] > 100 µM | [5] > 100 µM | [6] > 100 µM | [7] > 100 µM | [8] > 100 µM | [9] > 100 µM | [10] > 100 µM | [11] > 100 µM | [13] > 100 µM | [14] > 100 µM | [15] > 100 µM | [19] > 100 µM | [16] > 100 µM

CCOC(=O)CCC(NC(=O)c1ccc(Oc2nc3c(N)cc(C(F)(F)F)cc3nc2-c2ccccc2)cc1)C(=O)OCC (stereo unspecified)
inactive: [20] 5.05 µM | [1] 11.7 µM | [2] 17.6 µM | [3] > 50.6 µM | [17] 13.5 µM | [18] > 45.9 µM | [4] 19 µM | [5] > 100 µM | [6] 59.8 µM | [7] 8.32 µM | [8] 8.24 µM | [9] 32.6 µM | [10] 54.3 µM | [12] 38.8 µM | [13] 17.3 µM | [14] 13.8 µM | [15] 39.6 µM | [19] 37.1 µM

O=C1C2=C(SCCS2)C(=O)c2c(Sc3ccc(Cl)cc3)c(Sc3ccc(Cl)cc3)c(Sc3ccc(Cl)cc3)c(Sc3ccc(Cl)cc3)c21
inactive: [20] 19.1 µM | [1] 8.49 µM | [2] > 100 µM | [3] > 100 µM | [17] 94.6 µM | [18] 51.3 µM | [4] 32 µM | [5] > 100 µM | [6] > 100 µM | [7] > 100 µM | [8] > 100 µM | [9] 57.8 µM | [10] > 100 µM | [11] 41.9 µM | [13] > 100 µM | [14] > 100 µM | [15] > 100 µM | [19] > 100 µM | [16] > 100 µM

Nc1ccc2c(c1)S(=O)(=O)c1cc(N)ccc1-2
inactive: [1] > 100 µM | [2] > 100 µM | [3] > 100 µM | [17] > 100 µM | [4] > 100 µM | [5] > 100 µM | [6] > 100 µM | [7] > 100 µM | [8] > 100 µM | [9] > 100 µM | [10] > 100 µM | [11] > 100 µM | [12] 78.5 µM | [13] > 100 µM | [14] > 100 µM | [15] > 100 µM | [19] > 100 µM | [16] > 100 µM
